Results: patent US20020009747A1, “METHODS AND REAGENTS FOR IDENTIFYING MODULATORS OF NEURONAL APOPTOSIS” (priority 1997, published 2002)
“Also recorded” adds a separate entry of the source.

System: primary sympathetic neurons
Assay: NGF withdrawal assay, neuronal survival quantitated by MTT assay
Type: cell-based
Details: protein expressed by recombinant adenovirus infection, NGF withdrawn
Procedure: One experimental system which can be used to assay for changes in death marker proteins in neurons undergoing cell death employs primary sympathetic neurons that are cultured for 3-5 days in nerve growth factor (NGF) to maintain their survival, after which time NGF is withdrawn to induce apoptosis. Death of the neuron occurs within 48 hours and requires transcription. […] Prior to the commitment point, the neurons can be rescued by re-supplying them with NGF; subsequent to the commitment point, the neurons can no longer be rescued, and are committed to die. As a part of the invention, we have shown that death due to NGF withdrawal in this assay is an apoptotic event (see Example V, below).
To confirm that primary sympathetic neurons die by apoptotic cell death, neurons were infected with a recombinant adenovirus expressing E1B55K, an adenoviral protein known to inhibit apoptosis by inhibiting p53. After adenovirus infection, NGF was withdrawn, and neuronal survival was then quantitated by MTT assay, as in Slack et al. supra.

Substance | neuronal survival / death after NGF withdrawal
Bcl2: a protein that can inhibit apoptosis | inhibits cell death in NGF-deprived neurons
E1B55K: adenoviral protein known to inhibit apoptosis by inhibiting p53, expressed from a recombinant adenovirus | inhibits death in NGF-deprived neurons; also recorded: rescue of sympathetic neuron apoptosis
